How the values were obtained:
[1] = target: T1, human GLP-1 receptor (Homo sapiens, UniProt P43220); experiment: Receptor binding assay: [125I]GLP-1 (aa 7-36) equilibrium radioligand binding; conditions: membranes from HEK-293 or CHO cells expressing the human GLP-1 receptor; room temp 120 min
T1 construct: expressed in transfected cells; host or cells: HEK-293 or CHO cells (membranes)
Experimental: Reactions were carried out in 96-well plates. Compound was diluted in 20% DMSO/water. The final assay concentration ranging from 0.1 nM to 100 uM in 2% final DMSO concentration was used. […] Plates were washed 5 times with cold 25 mM Tris-HCL, pH 7.5 containing 0.05% bovine serum albumin (BSA). Following filtration, 50 uL of Microscint PS (Packard part no. 6013631) was added, plates were sealed with TopSeal-A adhesive seals (Packard part no. 6005185). ^125I isotope bound to the Unifilter-96 GF/C plates was counted using a TopCount instrument (Packard).
Percent inhibition of [^125I] […] The IC50 values were calculated by fitting the data using parameters for a sigmoidal dose response, variable slope nonlinear regression (GraphPAD Prizm, San Diego, Calif.) according to the equation: Y=Bottom+(Top-Bottom)/(1+10^((Log EC50−X)*HillSlope)) wherein, X is the logarithm of concentration and Y is the response, and Y starts at Bottom and goes to Top with a sigmoid shape. This is identical to the four parameter logistic equation.

[2] = target: T2, cloned human GLP-1 receptor (Homo sapiens, UniProt P43220); experiment: Functional cell-based assay: cAMP functional assay; conditions: for Emax: 0.5 h, percentage relative to maximal GLP-1-induced cAMP accumulation, na = not active in the assay, read-out: % activation
T2 construct: expressed in transfected cells; host or cells: CHO or HEK-293 cells
Procedure, shortened: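 Monolayer cells incubated 30 min at 37 °C with compounds (0.0001–100 μM) in IMDM containing 100 μM RO 20-1724 PDE inhibitor, 0.1% BSA and 2% DMSO. cAMP measured by HTRF.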

T2 sequence (P43220 24-463): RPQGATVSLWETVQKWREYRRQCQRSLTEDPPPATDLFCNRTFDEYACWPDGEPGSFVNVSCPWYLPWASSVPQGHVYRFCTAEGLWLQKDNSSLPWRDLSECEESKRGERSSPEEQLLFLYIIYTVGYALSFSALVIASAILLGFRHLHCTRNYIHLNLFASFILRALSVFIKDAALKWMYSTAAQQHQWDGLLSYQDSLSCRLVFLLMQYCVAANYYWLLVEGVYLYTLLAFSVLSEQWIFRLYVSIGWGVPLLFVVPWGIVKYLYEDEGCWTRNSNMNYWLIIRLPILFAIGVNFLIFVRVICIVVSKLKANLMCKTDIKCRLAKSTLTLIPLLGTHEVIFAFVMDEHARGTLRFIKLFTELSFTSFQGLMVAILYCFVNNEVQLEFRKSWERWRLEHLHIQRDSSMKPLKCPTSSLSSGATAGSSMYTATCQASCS
T1 sequence (P43220 24-463): as above

Row | % binding vs [125I]GLP-1 [1] [%] | EC50 [2] [nM] | Emax [2] [%] | SMILES
1 | 60 | 130 | 56 | N#Cc1ccc(-c2ccc(C[C@H](NC(=O)[C@@H]3Cc4cc5c(cc4CN3Cc3ccccn3)OC(c3ccc(OCc4ccc(Cl)c(Cl)c4)cc3)C(=O)N5)C(=O)O)cc2)cc1 (stereo partly drawn) [Example 39, (S)-3-(4′-Cyano-biphenyl-4-yl)-2-({(S)-3-[4-(3,4-dichloro-benzyloxy)-phenyl]-2-oxo-6-pyridin-2-ylmethyl-2,3,5,6,7,8-hexahydro-1H-4-oxa-1,6-diaza-anthracene-7-carbonyl}-amino)-propionic acid]
2 | 68 | 145 | 99.6 | N#Cc1ccc(-c2ccc(C[C@H](NC(=O)[C@@H]3Cc4cc5c(cc4CN3C(=O)c3ccccc3)OC(c3ccc(OCc4ccc(Cl)c(Cl)c4)cc3)C(=O)N5)C(=O)O)cc2)cc1 (stereo partly drawn) [Example 15, (S)-2-({(S)-6-Benzoyl-3-[4-(3,4-dichloro-benzyloxy)-phenyl]-2-oxo-2,3,5,6,7,8-hexahydro-1H-4-oxa-1,6-diaza-anthracene-7-carbonyl}-amino)-3-(4′-cyano-biphenyl-4-yl)-propionic acid]
